Measurements from article PMC3274447, “Fermentation, Isolation, Structure, and antidiabetic activity of NFAT-133 produced by Streptomyces strain PM0324667” (AMB Express, 2011).
Values joined by “and” are separate entries in the source; they are usually repeats but may differ in a detail not shown here. Equal entries are not always repeated. Where two headings read alike, the source gives them in different places. Each block holds one molecule with its values, some of them ahead of it.

Legend:
[1] = tested on: L6 rat skeletal muscle cells; assay: Glucose uptake (14C-2-deoxyglucose) in insulin-sensitized differentiated L6 myotubes; format: cell-based; details: for EC50: Rattus norvegicus, differentiated L6 myotubes in presence of insulin
Method: The metabolite extract library samples were screened for the ability to induce glucose uptake in insulin stimulated differentiated L6 myotubes. The L6 rat skeletal muscle cells were seeded into 96 well cell culture plates in complete medium (α-MEM + 10% fetal bovine serum + 1% penicillin-streptomycin solution) and maintained at 5% carbon dioxide (CO2) atmosphere. After 48 h, the medium was switched to α-MEM with 2% (v/v) fetal bovine serum (FBS) in order to initiate differentiation. Media change was ensured every 48 h. Compound treatment was conducted once the myoblasts differentiated to form myotubes. The differentiated and fused myotubes were starved in serum free α-MEM for 4 h, treated with samples and further incubated for 24 h. Following treatment and incubation, the cells were sensitized with insulin (200 nM) and incubated for 25 minutes. Radioactive glucose pulsing was done at 0.06 μCi/ml for 10 minutes. The reaction was terminated with cold KRPH buffer. The cell-associated radioactivity was determined by lysing the cells with Microscint PS™ followed by liquid scintillation counting ([Huang et al. 2002]). The assay was performed in triplicate.
For all experiments, the L6 myoblasts obtained from ATCC were used only up to passage seven and were utilized within two months post revival of a new vial.

[2] = tested on: transcription factor - NFAT; set-up: method as in Burres et al.1995; details: Jurkat T-cells; ref Burres et al.1995; cited from earlier work
[3] = Pharmacokinetic profile in female db/db mice; format: in vivo; details: for AUC(0-t) / Cmax / Tmax / half-life / AUC(0-inf): mouse, plasma; for AUC(0-inf): read-out: AUC 0-infinity
From the text: Similarly, troglitazone a PPAR-γ […] agonist increases glucose uptake by inducing GLUT4 translocation in L6 skeletal muscles ([Lessard et al. 2006]; [Yonemitsu et al. 2001]). However, these compounds are PPAR-γ agonists, and have several side-effects that cause increased body weight and hepaptoxicity on chronic exposure. […] Prior to planning an efficacy study we determined the pharmacokinetic profile of NFAT-133 (Figure 5, Table 4) using female db/db mice with n = 4 per time point. […] But, since the compound appeared to have a novel mechanism of action, we decided to explore its in vivo efficacy potential by attempting the intraperitoneal route of administration. NFAT-133 administered by the intraperitoneal route achieved plasma concentrations higher than the in vitro EC50 in skeletal muscles.
Figure 5 Pharmacokinetic data of NFAT-133 by oral (A) and intraperitoneal (B) absorption in female db/db mice at 30 mg/kg.

db/db mice = assay: In vivo activity in male db/db mice, 10 days b.i.d.
Method: Male db/db mice (7-9 weeks of age) were housed in individually ventilated cages at room temperature of 22°C ± 2°C, humidity at 55 ± 5%, with a 12:12-h light: dark cycle and throughout the study period had access to water and standard chow ad libitum. The guidelines of the Committee for the Purpose of Control and Supervision of Experiments on Animals, Government of India, were followed and the in-house animal ethics committee approved all experimental procedures.
Male db/db mice were divided into three groups of 10 animals each with similar body weight and plasma glucose (mean ± S.E.M.) levels. […] Body weight was measured daily. On day 10, one hour after the last dose, mice were fasted for four hours so as to minimize the variability between the animals. Blood was collected from the fasted mice, plasma was separated by centrifugation (6000 g at 4°C for 7 minutes) and glucose was estimated using a biochemistry auto analyzer (Hitachi Science Systems Limited, Ibaraki, Japan). A small aliquot of separated plasma was stored at -20°C for estimation of insulin using an ELISA assay kit (Linco Research). Immediately after blood sample collection, mice were sacrificed, livers excised and weighed. The data was reproducible in two independent experiments.
All the results are expressed as Mean ± S.E.M. Statistical analysis was done using GraphPad Prism 4 (version 4.03, GraphPad Software, Inc., CA, USA). For comparison between means of more than two groups one-way analysis of variance (ANOVA) followed by Dunnett's post-hoc analysis was employed.

[4] = tested on: splenocytes derived from Balb/c and C57BL/6 mice; set-up: method as in Burres et al.1995; details: splenocytes from Balb/c and C57BL/6 mice in vitro; ref Burres et al.1995; cited from earlier work
human PPAR-γ = biological target: T1, human PPAR-γ (Homo sapiens, UniProt P37231); assay: PPAR-γ luciferase assay in transfected CV1 cells; format: cell-based; details: for % hPPAR-γ activation: relative to 1 μM rosiglitazone = 100%, n = 3
T1 construct: expressed in transfected cells; host or cells: CV1 cells, transient transfection with lipofectamine
T1 sequence (P37231 1-505): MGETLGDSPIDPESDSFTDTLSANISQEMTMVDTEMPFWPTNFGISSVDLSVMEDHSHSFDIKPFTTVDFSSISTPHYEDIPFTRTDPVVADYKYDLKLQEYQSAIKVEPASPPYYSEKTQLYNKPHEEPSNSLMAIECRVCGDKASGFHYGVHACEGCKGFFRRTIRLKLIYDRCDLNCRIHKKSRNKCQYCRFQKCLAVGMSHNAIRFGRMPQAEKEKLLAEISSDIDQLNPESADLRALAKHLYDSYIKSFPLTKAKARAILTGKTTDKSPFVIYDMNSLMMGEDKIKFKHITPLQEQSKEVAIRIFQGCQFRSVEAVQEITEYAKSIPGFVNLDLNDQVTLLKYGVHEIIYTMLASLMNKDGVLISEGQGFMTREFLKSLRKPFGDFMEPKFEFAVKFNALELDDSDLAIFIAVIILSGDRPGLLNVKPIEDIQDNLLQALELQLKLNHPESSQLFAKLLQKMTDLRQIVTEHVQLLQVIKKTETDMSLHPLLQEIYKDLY
Method: PPAR-γ activation is one of the key mechanisms involved in glucose uptake. […] CV1 cells were seeded onto 24 well plates and transient transfections were conducted after over-night incubation using lipofectamine (Invitrogen, CA, USA). Five hours after transfection, the cells were treated with each compound concentration for an additional 24 h, and the luciferase assay (Promega) was performed according to the manufacture's protocol. Luminescence was measured using the Safire2 reader. […] The entire assay was performed in triplicates.

[5] = 100 mg/kg i.p. b.i.d. 10 days, P < 0.001 vs. vehicle

- oral bioavailability [3]: poor oral bioavailability
- AUC(0-t) ([3]; 30 mg/kg IP): 3220 ng·h/mL
- Cmax ([3]; 30 mg/kg IP): 11700 ng/mL and 42.2 µM
- Tmax ([3]; 30 mg/kg IP): 4.8 min
- half-life ([3]; 30 mg/kg IP): 112 min
- AUC(0-inf) ([3]; 30 mg/kg IP): 3550 ng·h/mL
- AUC(0-t) ([3]; 30 mg/kg oral): 630 ng·h/mL
- Cmax ([3]; 30 mg/kg oral): 3410 ng/mL and 12.3 µM
- Tmax ([3]; 30 mg/kg oral): 4.8 min
- half-life ([3]; 30 mg/kg oral): 9.6 min
- AUC(0-inf) ([3]; 30 mg/kg oral): 650 ng·h/mL
- liver weight (db/db mice; 100 mg/kg ip b.i.d. 10 days): 2.0 ± 0.1 g
- liver weight (db/db mice; 100 mg/kg ip b.i.d. 10 days, Mean ± S.E.M., n = 10, the values are: liver weight): 2 ± 0.1 g
- % hPPAR-γ activation (human PPAR-γ; 30 μM): 0.2%
- % hPPAR-γ activation (human PPAR-γ; 100 μM): 9.0%
- PPAR-γ activity (human PPAR-γ; concentrations as high as 100 μM): does not induce PPAR-γ activity
SMILES: CC(=O)C(C)C(O)C(C)c1ccc(C)cc1/C=C\CO (stereo not shown) [NFAT-133]
- EC50 [1]: 6.3 ± 1.8 µM
- activation of the transcription factor NFAT [2]: inhibit the activation
- plasma glucose levels as compared to vehicle treated animals (db/db mice; [5]): significant reduction
- plasma insulin levels as compared to vehicle treated animals (db/db mice; [5]): significant reduction
- % Change in body weight (db/db mice; 100 mg/kg ip b.i.d. 10 days, Mean ± S.E.M., n = 10): -1.08 ± 1.21% and -1.1 ± 1.2 %
- proliferation of splenocytes [4]: block proliferation

- liver weight (db/db mice; 5 mg/kg po b.i.d. 10 days): 2.7 ± 0.1 g
- liver weight (db/db mice; 5 mg/kg po b.i.d. 10 days, Mean ± S.E.M., n = 10, the values are: liver weight): 2.6 ± 0.1 g
SMILES: CN(CCOc1ccc(CC2SC(=O)NC2=O)cc1)c1ccccn1 (stereo not shown) [Rosiglitazone, rosiglitazone, reference compound]
- Inference (glucose uptake activity) ([1]; 4 μg/ml): Active
- EC50 [1]: 6.9 ± 1.8 µM
- % Change in body weight (db/db mice; 5 mg/kg po b.i.d. 10 days, Mean ± S.E.M., n = 10): 14.6 ± 0.8 %
- % Change in body weight (db/db mice; 5 mg/kg po b.i.d. 10 days, Mean ± S.E.M., n = 10, listed as rosiglitazone): 14.63 ± 0.85%
